The text below walks through data of patent US20130303373A1, “USE OF A COMPOSITION FOR THE INCREASE OF CROP YIELD” (GLOBACHEM, priority 2010, published 2013).

Test [1] has as its system winter wheat. Briefly: Yield increase with wheat (ear and grain parameters). It counts as in vivo. How it is done:
This experiment was performed on winter wheat. ABA was applied to the winter wheat in two different doses, respectively 2 and 4 gram/hectare. The dose of 2 gram was repeated in combination with 5 g/ha of histidine.
The length of the ears (expressed in mm), the number of filled spikelets, the average number of grains counted per 50 ears, and as a quality parameter also the kernel weight of 1000 […] (“1000 kernel wt”) were determined.

Test [2] has as its system mature apple trees of the variety Jonagold, (mutant Jonagored). Briefly: Yield increase with apple (fruit set and fruit size after spraying). Format: in vivo. How it is done: This experiment was performed on mature apple trees of the variety Jonagold, (mutant Jonagored). The sprayings were performed with an atomizer, each time applying an amount of 300 liter of water per hectare.
S-abscisic acid (ABA) was applied alone as well as in combination with glutamine. The applications were started around the end of flowering and were repeated every 10 to 14 days. ABA was first applied in two consecutive treatments, each time using a concentration of 3.3 ppm wt, and thus in a dosing of 1.0 g/ha. The composition with glutamine was applied until the end of the growing season, and with a concentration of 50 ppm wt, and thus in a dosing of 15 g/ha. ABA was also in this test applied only twice, on April 24 and May 7. The applications of glutamine were started around the end of flowering and were repeated every 7 to 14 days, depending on the weather conditions. In total there were 7 treatments, more precisely on April 24, May 7, May 14, May 20, June 9, June 16 and June 24. Immediately after the treatments, on June 25, also the average fruit diameter was determined.

As to `CC1=CC(=O)CC(C)(C)[C@@]1(O)/C=C/C(C)=C/C(=O)O` [ABA, S-abscisic acid], in test [1] (ABA 2 g/ha), the “1000 kernel wt (gram)” value is reported as 43.6 gram, the “Ear Length (mm)” value was found to be 75 mm, the Nr. filled spikelets came to 9.9 and the “Nr. grains/50 ears” value is listed as 72.4. Further, in test [1] (ABA 4 g/ha), the “1000 kernel wt (gram)” value is given as 44.8 gram, the “Ear Length (mm)” value is 78 mm, the Nr. filled spikelets is 10.2 and the “Nr. grains/50 ears” value is 84.7. For the same molecule, the “Fruit diameter (mm) on June 25” value in test [2] (ABA 2 treatments at 1.0 g/ha, glutamine 7 treatments at 15 g/ha, measured June 25) turned out to be 43.8 mm. In test [2] (ABA 2 treatments at 3.3 ppm wt (1.0 g/ha), glutamine 7 treatments at 50 ppm wt (15 g/ha), 300 l water/ha), the “Nr of fruits per cluster” value was determined as 0.80.
